Values joined by “and” are separate entries in the source; they are usually repeats but may differ in a detail not shown here. Identical values can stand only once. “Also recorded” adds a separate entry of the source.
Assays:
p-BTK(Y233) = target: T1, p-BTK(Y233) (Mus musculus, UniProt P35991); assay: Splenic p-BTK(Y233) level in mice after single RC-1 injection (western blot); type: in vivo, ICR mice; conditions: for p-BTK(Y223) level, mean: Figure 5d, DMSO = 100; for p-BTK(Y233) quantification: Supplementary Figure 8, individual animals
T1 construct: from tissue; host or cells: spleen of female ICR mice
Procedure: (§1) To investigate the protein degradation effect of RC-1 in vivo, mice were subjected to single RC-1 administration at the dose of 50 or 100 mg kg^−1 (i.p.) or seven once-daily RC-1 administration at the dose of 20 mg kg^−1 (i.p.) (n = 2–3). Twenty-four hours after the one-time RC-1 injection or 24 h after the 7th injection, mice were anesthetized with isoflurane and the whole spleen was dissected and stored at −80 °C for western blot analysis of protein level.
(§2) Supplementary Figure 8. Protein degradation by BTK PROTAC RC-1 in mouse spleen. ICR mice were subjected to single IP injection of RC-1 at the dose of 50 mg/kg (n = 4) or 100 mg/kg (n = 3) and spleens were harvested 24 h after injection. (a) The splenic p-BTK(Y233), BTK, IKZF1 and IKZF3 levels were measured with Western blot. (b). Quantification of protein levels shown in (a). Data are presented as mean values ± SEM.
(§3) Asterisks indicate that the differences between samples are statistically significant, using two-tailed, unpaired t- […]
(§4) test (* p < 0.05; significant).
(§5) (1 picture or pasted object on this page, not shown here)

BTK = BTK (Mus musculus, UniProt P35991); assay: Pharmacodynamics: splenic BTK level in mice (western blot); type: in vivo, ICR mice; set-up: from tissue; host or cells: spleen of female ICR mice; conditions: for BTK level, mean: Figure 5d, DMSO = 100; for BTK quantification: Supplementary Figure 8, individual animals
Procedure: (§6) The collected cells and spleen tissues were lysed in RIPA lysis buffer (50 mM Tris-HCl, pH 7.4, 150 mM NaCl, 1% NP-40, 0.5% sodium deoxycholate, 0.1% SDS) supplemented with Halt™ Protease and Phosphatase Inhibitor Cocktail (Thermo Fisher Scientific, Cat. No. PI78440) immediately before use. Lysates were centrifuged at 15,000 × g for 10 min at 4 °C and the supernatant was quantified for total protein concentration using the Pierce BCA Protein Assay (Thermo Fisher Scientific, Cat. No. 23225). Thirty micrograms of protein were loaded onto sodium dodecyl sulfate−polyacrylamide gel for electrophoresis (Bio-Rad) and transferred onto PVDF membranes (Millipore, Cat. No. IPVH00010). […] Imaging was performed using the ECL Prime chemiluminescent western blot detection reagents (GE Healthcare, Cat. No. RPN2232) by visualization of the blots to X-Ray film or with an Imager (Kindle Biosciences, Cat. No. D1001). All western blots were subsequently processed and quantified with Imager software. Protein level was normalized to β-actin or GAPDH loading controls.
as §1

[1] = Pharmacokinetics of RC-1 in mice; type: in vivo, ICR mice
Procedure: The pharmacokinetic profile of the BTK PROTAC RC-1 was evaluated in female ICR mice (weighing 22-28 g, n = 3). RC-1 was formulated in a […] solvent (30% PEG-400, 5% Tween 80, and 5% DMSO in deionized water) and was administered in a single IP injection (20 mg kg^−1). Blood samples (25 µL) were withdrawn from the tail vein at the time points of 10 min, 30 min, 1 h, 2 h, 4 h, 8 h, and up to 24 h after dosing. The blood samples were collected into 1.5 mL centrifuge tubes coated with 0.5 M EDTA and were immediately centrifuged at 12,000 × g at 4 °C for 15 min. The resultant plasma was extracted with 9 vol of acetonitrile (containing internal standard: 250 nM of RNC-Ctrl) and then were centrifuged at the same conditions described above. The supernatant was stored at −80 °C for liquid chromatography-mass spectrometry analysis. The standard curve was established by serially diluted RC-1 in plasma collected from naïve mice (from 5.0 to 0.003 μg mL^−1, 4-fold dilution). The PK parameters were calculated with the Microsoft Excel PK Solver.

IKZF3 = assay: Splenic IKZF3 level in mice after single RC-1 injection (western blot); type: in vivo, ICR mice; conditions: for IKZF3 level, mean: Figure 5d, DMSO = 100; for IKZF3 quantification: Supplementary Figure 8, individual animals
Procedure: as §1, §2, §3, §4, §5

[2] = system: BTK, pBTK, IKZF1, and IKZF3; assay: Degradation of BTK, pBTK, IKZF1 and IKZF3 in Mino cells (western blot); type: cell-based
Procedure: as §6

[3] = female, mouse, ip, 20 mg kg^−1, i.p., ICR mice, plasma

Chain of BTK (P35991 whole entry): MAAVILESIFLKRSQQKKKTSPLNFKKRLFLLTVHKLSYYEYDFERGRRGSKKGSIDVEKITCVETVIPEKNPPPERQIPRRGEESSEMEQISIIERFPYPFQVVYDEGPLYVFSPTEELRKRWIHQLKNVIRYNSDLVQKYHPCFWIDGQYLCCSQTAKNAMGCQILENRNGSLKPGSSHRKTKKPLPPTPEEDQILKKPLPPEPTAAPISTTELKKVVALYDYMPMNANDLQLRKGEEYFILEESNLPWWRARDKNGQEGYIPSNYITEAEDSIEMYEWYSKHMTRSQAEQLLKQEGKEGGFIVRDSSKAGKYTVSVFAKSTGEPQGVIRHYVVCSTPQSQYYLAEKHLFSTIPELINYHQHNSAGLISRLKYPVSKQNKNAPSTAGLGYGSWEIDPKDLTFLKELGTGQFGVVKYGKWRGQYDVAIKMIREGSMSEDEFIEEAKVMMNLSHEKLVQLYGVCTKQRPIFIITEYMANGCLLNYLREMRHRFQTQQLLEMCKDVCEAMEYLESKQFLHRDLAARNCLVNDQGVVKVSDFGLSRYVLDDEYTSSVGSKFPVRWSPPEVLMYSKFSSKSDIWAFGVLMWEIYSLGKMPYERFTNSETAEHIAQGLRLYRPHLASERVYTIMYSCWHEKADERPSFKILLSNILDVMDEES
T1 sequence (P35991 whole entry): as above

CN(CCCNC(=O)CNc1cccc2c1C(=O)N(C1CCC(=O)NC1=O)C2=O)C(C)(C)C=C(C#N)C(=O)N1CCC[C@@H](n2nc(-c3ccc(Oc4ccccc4)cc3)c3c(N)ncnc32)C1 (stereo partly drawn) [RC-1]
p-BTK(Y223) level, mean (p-BTK(Y233); 1 injection): 96.2894 | p-BTK(Y223) level, mean (p-BTK(Y233); 7 injections): 85.9605 | p-BTK(Y233) quantification (p-BTK(Y233); RC-1 50 mg/kg, 50 mg/kg): 61.7244 and 50.2464 and 71.4895 and 26.7569 | p-BTK(Y233) quantification (p-BTK(Y233); RC-1 100 mg/kg, 100 mg/kg): 42.1872 and 10.8062 and 16.7176 | BTK level reduction in the spleens (BTK; 20 mg kg^−1 i.p., 7 daily injections, vs vehicle-treated mice): ~ 50% | BTK level, mean (BTK; 1 injection): 58.8522 | BTK level, mean (BTK; 7 injections): 59.7357 | BTK quantification (BTK; RC-1 50 mg/kg, 50 mg/kg): 56.2321 and 63.4217 and 82.4136 and 62.324 | BTK quantification (BTK; RC-1 100 mg/kg, 100 mg/kg): 59.6665 and 43.7954 and 40.8615 | AUC [1, 3]: 72 µM·h | Cmax [1, 3]: 20 µM | half-life ([1]; female, mouse, plasma, ip, 20 mg kg^−1, i.p., ICR mice, read-out: plasma half-life (t1/2) (converted)): 3.4 h | plasma concentration maintained over 24 h ([1]; single i.p. injection 20 mg/kg): above 200 nM | IKZF3 level, mean (IKZF3; 1 injection): 34.6975 | IKZF3 level, mean (IKZF3; 7 injections): 73.2929 | IKZF3 quantification (IKZF3; RC-1 50 mg/kg, 50 mg/kg): 18.4248 and 33.3032 and 114.952 and 16.6702 | IKZF3 quantification (IKZF3; RC-1 100 mg/kg, 100 mg/kg): 2.1 and 60.2254 and 21.7286 | degradation of BTK, pBTK, IKZF1, IKZF3 (in words) [2]: induced degradation of BTK, pBTK, IKZF1, and IKZF3; also recorded: can degrade not only BTK and phosphorylated BTK but also IKZF1 and IKZF3

Source: PMC7450057, “Enhancing intracellular accumulation and target engagement of PROTACs with reversible covalent chemistry” (Nature Communications, 2020)
